Here are results for 12 molecules from US20120208809A1, “9H-PYRROLO[2,3-B: 5,4-C'] DIPYRIDINE AZACARBOLINE DERIVATIVES, PREPARATION THEREOF, AND THERAPEUTIC USE THEREOF” (SANOFI, priority 2009, published 2012).

For one experiment, the target named is T1, Pim-1 (Homo sapiens, UniProt P11309).
T1 construct: full-length human recombinant His6-labelled Pim-1, Pim-2 or Pim-3 protein; His6; made in house
As to the kind of experiment: TR-FRET assay of Pim kinase activity (phosphorylation of Bad Ser112), Pim-1. It counts as biochemical. Conditions: ATP 40 μM, read-out: IC50 Pim1. The method, then: (§1) In order to determine the inhibition of Pim kinase activity, the compounds of the invention are tested in accordance with a routinely-used in-vitro TR-FRET assay (“Time Resolved-Fluorescence Resonance Energy Transfer”). […] For the assay, the following reagents are used:
(§2) Pim kinase—full-length human recombinant His6-labelled Pim-1, Pim-2 or Pim-3 protein (prepared according to J. Mol. Biol. (2005) 348, 183-193); Bad—full-length human recombinant His6-labelled Bad protein (prepared according to J. Mol. Biol. (2005) 348, 183-193); α-His6-APC—mouse monoclonal antibody conjugated to allophycocyanine SureLight™ directed against the His6 label (Perkin-Elmer, No. AD0059H, Waltham, Mass., United States); α-P˜Bad-Eu—mouse monoclonal antibody (Cell Signaling Technology #9296B, Danvers, Mass., United States) directed against phosphoBad (Ser112) (7E11) labelled on request by Perkin-Elmer with the reagent LANCE™ Eu-W1024.
(§3) The assay is based on the LANCE™ technology from Perkin-Elmer: the Eu-labelled antibody binds to phospho-Ser112 and generates a TR-FRET signal by interaction with the […] antibody directed against His6, bound to the His6 label of Bad. The TR-FRET signal is detected using a SpectraMax M5 plate reader (Molecular Devices) with the following settings: λex=340 nm, λem1=615 nm, λem2=665 nm. The ratio of the fluorescence signal at 665 nm to the fluorescence signal at 615 nm is used as the signal reading for the IC50 (calculations based on the 4-parameter logistic model). The assay is performed in 384-well format; the liquid manipulations are performed using a Beckmann 3000 liquid manipulation station. The test compounds are tested at 10 concentration points in duplicate; the highest concentration of compound is typically equal to 30 μM. The ATP concentration is equal to 40 μM.

Another experiment addresses PLK1 (Homo sapiens, UniProt P53350). As to the kind of experiment: Biochemical results, IC50 PLK1.
The next experiment addresses T2, Pim-3 (Homo sapiens, UniProt Q86V86).
T2 construct: full-length human recombinant His6-labelled Pim-1, Pim-2 or Pim-3 protein; His6; made in house
As to the kind of experiment: TR-FRET assay of Pim kinase activity (phosphorylation of Bad Ser112), Pim-3. It counts as biochemical. Particulars: ATP 40 μM, read-out: IC50 Pim3. The method, then: as §1, §2, §3
(In TR-FRET formats the signal depends on donor and acceptor labels being close together.)

The subject of a further experiment is MV4-11. Briefly: Cell viability assay (CellTiter-Blue), MV4-11. In kind it is cell-based. Conditions: Homo sapiens, read-out: EC50 MV4-11 μM (acute myeloid leukemia), MV4-11 cells, read-out: EC50 MV4-11 μM (myeloma). As for the experimental part: (§4) The representative compounds of the invention are also screened as regards their effects on cell proliferation and viability, using a variety of tumoral cell lines of human source, representative of different pathological indications. These cell lines include:
(§5) In order to measure the viability, the tumour cells are incubated in 96-well or 384-well format for 48, 72 or 96 hours, preferably 72 hours, with a compound of the invention at dilutions of a factor 3, with, in general, nine doses in total, the highest dose being equal to 10 μM or 30 μM. The cell viability is evaluated by adding CellTiter-Blue® (Promega, Madison, Wis., United States) for 4 hours and endpoint readings are taken using a SpectraMax Genmini EM plate reader (Molecular Devices, Sunnyvale, Calif., United States). The CellTiter-Blue® cell viability assay measures the ability of the cells in culture to reduce resazurin to resorufin, the intensity of the fluorescence signal being directly proportional to the number of live cells. The EC50 represents the concentration of compound that leads to a 50% reduction of the viability/proliferative expansion of the cells.
For orientation: Alamar Blue is a resazurin reagent that responds to reducing activity.

For another experiment, the target named is CDK1 (Homo sapiens, UniProt P06493). As to the kind of experiment: Biochemical results, IC50 CDK1.
CDK1, sequence (P06493 whole entry, species assumed): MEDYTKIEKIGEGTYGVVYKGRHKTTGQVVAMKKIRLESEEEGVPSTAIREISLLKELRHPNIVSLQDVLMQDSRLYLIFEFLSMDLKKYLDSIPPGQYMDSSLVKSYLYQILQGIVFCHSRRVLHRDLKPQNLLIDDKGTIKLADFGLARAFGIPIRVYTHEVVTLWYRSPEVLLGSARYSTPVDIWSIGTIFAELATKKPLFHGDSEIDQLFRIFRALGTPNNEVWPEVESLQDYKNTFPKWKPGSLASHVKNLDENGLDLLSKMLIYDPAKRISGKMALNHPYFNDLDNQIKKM
CDK1, sequence (P14635 whole entry partner, species assumed): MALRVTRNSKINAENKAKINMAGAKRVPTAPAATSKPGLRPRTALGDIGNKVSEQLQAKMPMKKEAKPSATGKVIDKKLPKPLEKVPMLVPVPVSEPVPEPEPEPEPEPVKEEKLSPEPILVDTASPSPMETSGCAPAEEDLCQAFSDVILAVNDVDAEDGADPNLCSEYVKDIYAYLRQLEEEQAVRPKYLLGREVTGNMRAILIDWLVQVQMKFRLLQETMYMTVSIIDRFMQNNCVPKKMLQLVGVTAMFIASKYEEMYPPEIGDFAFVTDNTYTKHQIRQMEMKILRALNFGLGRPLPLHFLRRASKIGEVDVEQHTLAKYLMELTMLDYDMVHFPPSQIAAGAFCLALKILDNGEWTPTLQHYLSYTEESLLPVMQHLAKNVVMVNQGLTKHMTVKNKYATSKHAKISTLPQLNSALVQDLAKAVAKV
A further experiment addresses T3, Pim-2 (Homo sapiens, UniProt Q9P1W9).
T3 construct: full-length human recombinant His6-labelled Pim-1, Pim-2 or Pim-3 protein; His6; made in house
Briefly: TR-FRET assay of Pim kinase activity (phosphorylation of Bad Ser112), Pim-2. It counts as biochemical. Conditions: ATP 40 μM, read-out: IC50 Pim2. As for the experimental part: as §1, §2, §3

Another experiment relates to EOL-1. As to the kind of experiment: Cell viability assay (CellTiter-Blue), EOL-1.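 Note: EOL-1 is an acute myeloid eosinophilic leukaemia line not a lymphoma.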 It counts as cell-based. Particulars: Homo sapiens, EOL1, read-out: EC50 EOL-1 μM (eosinophilic leukaemia), EOL-1 cells, read-out: EC50 EOL-1 μM (lymphoma).
From the text: as §4
Models of Haematological Cancers: • TF-1 (acute myelogenic leukaemia; AML M6 at the time of diagnosis); • K G-1 (AML; erythroleukaemia evolving into AML); • KG-1a (AML; subclone derived from immature KG-1); • EOL-1 (AML: eosinophilic leukaemia); • PL-21 (AML; M3); • ML-2 (AML; T-NHL evolving into T-ALL evolving into AML M4); • HL-60 (AML, M3); • Kasumi-1 (AML); • GDM-1 (AML); • K-562 (CML—chronic myelogenic leukaemia; blastic crisis); • JURL-MK1 (CML; blastic crisis); • DND-41 (T-ALL—T-cell acute lymphoblastic leukaemia); • Jurkat (T-ALL); NALM-6 (B-ALL B-cell ALL); • CEM (ALL; lymphosarcoma evolving into ALL); • Jeko-1 (B-NHL—B-cell non-Hodgkin lymphoma; lymphoma with coat cells derived from a large-cell variant in leukaemic transformation); • WSU-DLCL2 (B-NHL; diffuse lymphoma with large B cells); • RL (B-NHL; undifferentiated diffuse); • OCl-Ly10 (B-NHL); • DoHH-2 (B-NHL); • RPMI-8226 (MM—multiple myelomas); • JVM-2 (B-CLL—B-cell chronic lymphocytic leukaemia); and • JVM-3 (B-CLL).
as §5

PLK1, sequence (P53350 whole entry, species assumed): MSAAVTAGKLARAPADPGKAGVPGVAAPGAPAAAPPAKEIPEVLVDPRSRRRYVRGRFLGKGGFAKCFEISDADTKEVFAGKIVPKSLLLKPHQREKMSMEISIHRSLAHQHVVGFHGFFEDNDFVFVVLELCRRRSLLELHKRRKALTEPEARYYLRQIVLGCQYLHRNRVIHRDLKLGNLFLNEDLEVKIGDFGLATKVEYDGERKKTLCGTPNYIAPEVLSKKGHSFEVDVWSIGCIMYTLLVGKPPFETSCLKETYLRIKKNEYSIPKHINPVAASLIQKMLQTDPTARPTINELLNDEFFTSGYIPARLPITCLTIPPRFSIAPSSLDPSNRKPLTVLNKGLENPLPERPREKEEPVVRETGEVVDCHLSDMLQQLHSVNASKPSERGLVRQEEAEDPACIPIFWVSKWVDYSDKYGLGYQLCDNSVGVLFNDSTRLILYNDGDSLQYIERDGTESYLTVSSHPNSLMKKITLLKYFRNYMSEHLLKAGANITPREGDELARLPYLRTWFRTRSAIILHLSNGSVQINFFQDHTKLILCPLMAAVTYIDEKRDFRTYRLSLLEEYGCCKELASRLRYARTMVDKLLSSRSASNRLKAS
T3 sequence (Q9P1W9 whole entry): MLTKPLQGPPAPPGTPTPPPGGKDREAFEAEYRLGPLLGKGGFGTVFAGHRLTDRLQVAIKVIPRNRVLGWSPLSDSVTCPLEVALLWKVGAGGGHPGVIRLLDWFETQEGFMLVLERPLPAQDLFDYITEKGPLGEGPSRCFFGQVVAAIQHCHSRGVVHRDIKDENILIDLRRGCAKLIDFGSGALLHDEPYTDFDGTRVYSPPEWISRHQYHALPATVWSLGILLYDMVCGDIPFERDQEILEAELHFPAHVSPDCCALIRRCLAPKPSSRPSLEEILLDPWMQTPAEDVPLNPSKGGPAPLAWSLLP
T1 sequence (P11309 whole entry): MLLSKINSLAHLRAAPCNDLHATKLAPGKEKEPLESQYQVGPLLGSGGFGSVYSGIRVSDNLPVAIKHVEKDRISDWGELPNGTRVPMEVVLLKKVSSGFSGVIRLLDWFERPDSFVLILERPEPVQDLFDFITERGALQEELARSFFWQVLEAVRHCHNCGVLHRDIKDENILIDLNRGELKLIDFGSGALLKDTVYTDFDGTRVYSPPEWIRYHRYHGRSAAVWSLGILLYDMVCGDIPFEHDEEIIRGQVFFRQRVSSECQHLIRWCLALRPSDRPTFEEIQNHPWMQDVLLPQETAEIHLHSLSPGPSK

What is called IC50 is the concentration that gives 50% inhibition. In general, EC50 refers to the concentration at which the effect is half-maximal. On to `CN1CCC(NC(=O)c2ccc(-c3c(F)cnc4[nH]c5cnc(-c6cnn(C)c6Cl)cc5c34)cc2)CC1` [Example 107, 4-[6-(5-chloro-1-methyl-1H-pyrazol-4-yl)-3-fluoro-9H-pyrrolo[2,3-b:5,4-c′]dipyridin-4-yl]-N-(1-methylpiperidin-4-yl)benzamide], for which the IC50 at Pim-1 is < 100 nM; against PLK1, > 5000 nM; at Pim-3 it was < 100 nM; against CDK1 it was 1000 to 5000 nM; at Pim-2, < 100 nM. The EC50 in the experiment on MV4-11 and in the experiment on EOL-1 was 100 to 1000 nM throughout.

Consider `CN1CC(NC(=O)c2ccc(-c3c(F)cnc4[nH]c5cnc(-c6cccnc6)cc5c34)cc2)C1` [Example 56, 4-[3-fluoro-6-(pyridin-3-yl)-9H-pyrrolo[2,3-b:5,4-c′]dipyridin-4-yl]-N-(1-methylazetidin-3-yl)benzamide], for which the 50% inhibitory concentration (IC50) at Pim-1 was < 100 nM; on PLK1, 100 to 1000 nM; at Pim-3, < 100 nM; at CDK1 it was 100 to 1000 nM; at Pim-2, < 100 nM. The EC50 with MV4-11 and in the experiment on EOL-1 was < 100 nM throughout.

On to `CN1CCN(NC(=O)c2ccc(-c3c(F)cnc4[nH]c5cnc(-c6cnn(C)c6Cl)cc5c34)cc2)CC1` [Example 106, 4-[6-(5-chloro-1-methyl-1H-pyrazol-4-yl)-3-fluoro-9H-pyrrolo[2,3-b:5,4-c′]dipyridin-4-yl]-N-(4-methylpiperazin-1-yl)benzamide], for which the IC50 at Pim-1 was < 100 nM; against PLK1, 1000 to 5000 nM; at Pim-3, < 100 nM; on CDK1, 100 to 1000 nM; at Pim-2 it was < 100 nM. For the same molecule, the EC50 was 100 to 1000 nM in the experiment with MV4-11 and < 100 nM in the experiment on EOL-1.

As to `O=C(c1ccc(-c2c(F)cnc3[nH]c4cnc(-c5cccnc5)cc4c23)cc1)N1CCC(N2CCCC2)C1` (stereo not drawn) [Example 80, 1.3′-bipyrrolidin-1′-yl{4-[3-fluoro-6-(pyridin-3-yl)-9H-pyrrolo[2,3-b:5,4-c′]dipyridin-4-yl]phenyl}methanone], the IC50 on Pim-1 was < 100 nM; at PLK1, 100 to 1000 nM; at Pim-3, < 100 nM; at CDK1 it was 100 to 1000 nM; at Pim-2, 100 to 1000 nM.

As to `CN(C)[C@@H]1CCN(C(=O)c2ccc(-c3c(F)cnc4[nH]c5cnc(-c6cccnc6)cc5c34)cc2)C1` [Example 46, [(3R)-3-(dimethylamino)pyrrolidin-1-yl]{4-[3-fluoro-6-(pyridin-3-yl)-9H-pyrrolo[2,3-b:5,4-c′]dipyridin-4-yl]phenyl}methanone], the IC50 at Pim-1 is < 100 nM; against PLK1, 100 to 1000 nM; at Pim-3, < 100 nM; against CDK1 it was 100 to 1000 nM; at Pim-2 it was 1000 to 5000 nM.

Take `CN1CCC2(CCN(C(=O)c3ccc(-c4c(F)cnc5[nH]c6cnc(-c7cccnc7)cc6c45)cc3)C2)C1` (stereo not drawn) [Example 77, {4-[3-fluoro-6-(pyridin-3-yl)-9H-pyrrolo[2,3-b:5,4-c′]dipyridin-4-yl]phenyl}(7-methyl-2,7-diazaspiro[4.4]non-2-yl)methanone]: the IC50 at Pim-1 was < 100 nM; against PLK1 it was 1000 to 5000 nM; at Pim-3, < 100 nM; against CDK1, 1000 to 5000 nM; on Pim-2, 1000 to 5000 nM.

Turning to `O=C(NCCCN1CCCC1=O)c1ccc(-c2c(F)cnc3[nH]c4cnc(-c5cccnc5)cc4c23)cc1` [Example 49, 4-[3-fiuoro-6-(pyridin-3-yl)-9H-pyrrolo[2,3-b:5,4-c′]dipyridin-4-yl]-N-[3-(2-oxopyrrolidin-1-yl)propyl]benzamide], the IC50 at Pim-1 was 100 to 1000 nM; against PLK1 it was 100 to 1000 nM; at Pim-3 it was 100 to 1000 nM; on CDK1 it was 1000 to 5000 nM; on Pim-2, > 5000 nM.

On to `CN1CC2CCN(C(=O)c3ccc(-c4c(F)cnc5[nH]c6cnc(-c7cccnc7)cc6c45)cc3)CC2C1` (stereo not drawn) [Example 74, {4-[3-fluoro-6-(pyridin-3-yl)-9H-pyrrolo[2,3-b:5,4-c′]dipyridin-4-yl]phenyl}(2-methyloctahydro-5H-pyrrolo[3,4-c]pyridin-5-yl)methanone], for which the IC50 at Pim-1 is < 100 nM; against PLK1 it was 100 to 1000 nM; on Pim-3 it was < 100 nM; on CDK1, 1000 to 5000 nM; on Pim-2, 100 to 1000 nM.

Turning to `O=C(NCCNc1ccccc1)c1ccc(-c2c(F)cnc3[nH]c4cnc(-c5cccnc5)cc4c23)cc1` [Example 50, 4-[3-fluoro-6-(pyridin-3-yl)-9H-pyrrolo[2,3-b:5,4-c′]dipyridin-4-yl]-N-[2-(phenylamino)ethyl]benzamide], the IC50 on Pim-1 is 100 to 1000 nM; against PLK1, < 100 nM; at Pim-3 it was 100 to 1000 nM; against CDK1, 100 to 1000 nM; at Pim-2, > 5000 nM.

For `CN1C[C@@H]2CCN(C(=O)c3ccc(-c4c(F)cnc5[nH]c6cnc(-c7cccnc7)cc6c45)cc3)[C@@H]2C1` [Example 47, {4-[3-fluoro-6-(pyridin-3-yl)-9H-pyrrolo[2,3-b:5,4-c′]dipyridin-4-yl]phenyl}[(3aS,6aS)-5-methylhexahydropyrrolo[3,4-b]pyrrol-1(2H)-yl]methanone], the IC50 is < 100 nM at Pim-1; 100 to 1000 nM against PLK1; < 100 nM at Pim-3; 100 to 1000 nM on CDK1; < 100 nM on Pim-2.

On to `O=C(NCCNCCO)c1ccc(-c2c(F)cnc3[nH]c4cnc(-c5cccnc5)cc4c23)cc1` [Example 27, 4-[3-fluoro-6-(pyridin-3-yl)-9H-pyrrolo[2,3-b:5,4-c′]dipyridin-4-yl]-N-{2-[(2-hydroxyethyl)amino]ethyl}benzamide], for which the IC50 on Pim-1 was < 100 nM; on PLK1 it was 100 to 1000 nM; at Pim-3 it was < 100 nM; on CDK1, 1000 to 5000 nM; on Pim-2, < 100 nM.

Regarding `CNCCNC(=O)c1ccc(-c2c(F)cnc3[nH]c4cnc(-c5cccnc5)cc4c23)cc1` [Example 88, 4-[3-fluoro-6-(pyridin-3-yl)-9H-pyrrolo[2,3-b:5,4-c′]dipyridin-4-yl]-N-[2-(methylamino)ethyl]benzamide], the IC50 on Pim-1 was < 100 nM; on PLK1, 100 to 1000 nM; at Pim-3, < 100 nM; against CDK1, 100 to 1000 nM; on Pim-2, < 100 nM.
